Data set [1] has as its system F. oxysporum. It is filed as cell-based, F. oxysporum (KCTC 16909). The conditions noted are these: 36 h. The text has this: (§1) Aspergillus flavus (KCTC 6905), A. fumigatus (KCTC 6145), Fusarium moniliforme (KCTC 6149), F. oxysporum (KCTC 16909), C. albicans (KCTC 7270), C. krusei (CCARM 14017), C. parapsilosis (CCARM 14016), C. tropicalis (KCTC 7221), and T. beigelii (KCTC 7707) were obtained from the Korea Collection for Type Cultures (KCTC) and Culture Collection of Antimicrobial Resistant Microbes (CCARM). Mold and yeast fungi were pre-grown on potato dextrose (PD) and yeast extract peptone dextrose (YPD) agars, respectively.
(§2) Antifungal activity of peptides was performed by microtiter plate assays. Fungal conidia from four-day-old molds were collected using 0.08% Triton X-100 (v/v), and pre-cultivated yeast cells were adjusted to 2 × 10^4 spores/mL in 10 mM sodium phosphate buffer (SP, pH 7.2) or 10 mM 2-(N-morpholino)ethanesulfonic acid (MES) buffer (pH 5.5) supplemented with 20% culture medium, followed by addition to peptide solutions (0.25, 0.5, 1, 1.5, 2, 4, 6, 8, 12, 16, 32, 48, and 64 µM) in 96-well microtiter plates. After incubation for 36 h at 28 °C, the hyphal growth of conidia and the proliferation of yeast cells were observed under a light microscope. All assays were performed in triplicate. The MIC values were defined as the lowest concentration of samples that reduced fungal germination (for mold) or cell proliferation (for yeast) by more than 90% [34].

Data set [2] deals with C. tropicalis. It counts as cell-based, C. tropicalis (KCTC 7221). The conditions noted are these: 36 h.
Text: as §1, §2

Data set [3] concerns C. tropicalis cells. As to the kind of experiment: SYTOX Green uptake (membrane permeability). It is filed as cell-based. Conditions: SP buffer pH 7.2, 0.5 μM SYTOX Green, peptides 1-64 µM, monitored 30 min. How it is done:
C. tropicalis cells pre-grown at 28 °C were washed and suspended (2 × 10^6 cells/mL) in SP buffer (pH 7.2). The cells were pre-incubated with SYTOX Green (final concentration of 0.5 μM) for 15 min in the dark, followed by adding two-fold serial dilutions of peptides at concentrations of 1 to 64 µM. The fluorescence intensity was monitored for 30 min at 485 (Ex) and 520 (Em) nm using a microtiter SpectraMax M5 reader (Molecular Devices, San Jose, CA, USA).

Data set [4] has as its system mouse erythrocytes. Briefly: Hemolytic assay. It counts as cell-based. Conditions: 64 µM peptide, 8% (v/v) mRBCs, 37 °C, 2 h (method) / 4 h (figure legend). As for the experimental part: Mouse blood was collected into sodium heparin-coated tubes (BD Vacutainer; BD Diagnostics, Oxford, UK). The mRBCs were obtained by centrifugation (800× g, 10 min) and washing with PBS. The washed mRBCs were added to a final concentration of 8% (v/v) in 64 µM peptide solution, followed by incubation for 2 h at 37 °C. After centrifugation, each tube was digitally recorded.

Data set [5] deals with A. fumigatus. It counts as cell-based, A. fumigatus (KCTC 6145). The conditions noted are these: 36 h.
Text: as §1, §2

Where two headings read alike, the source gives them in different places. No end group written: not given here.

As usually defined, the MIC is the lowest concentration found to suppress growth. Higher therefore signals a need for much substance. Take “GLNALKKVFQGIHEAIKLINNHVQ-NH2 [Pseudin-2]”: the MIC in data set [1] (pH 5.5) was 16 µM; in data set [1] (pH 7.2) it was 4 µM; in data set [2] (pH 5.5), 2 µM; in data set [2] (pH 7.2), 4 µM; in data set [5] (pH 5.5) it was 24 µM; in data set [5] (pH 7.2), 64 µM. Further, the “SYTOX Green fluorescence intensity” value in data set [3] was “gradual, concentration-dependent increases in fluorescence intensity”. In data set [4], the “hemolytic effects (hemoglobin release, by visualization)” value is reported as “did not release hemoglobin”.

Values taken from publication PMC7766124, “Improved Cell Selectivity of Pseudin-2 via Substitution in the Leucine-Zipper Motif: In Vitro and In Vivo Antifungal Activity” (Antibiotics, 2020).
